Test results published in US20250049033A1, “PESTICIDALLY ACTIVE PYRIDAZINONE COMPOUNDS” (SYNGENTA CROP PROTECTION AG, priority 2021, published 2025).

How the values were obtained:
Type in all cases: in vivo
Plutella xylostella = test: Activity against Plutella xylostella (diamond back moth), artificial diet, eggs; conditions: 192 h, application rate 200 ppm, 8 days after infestation, vs untreated, read-out: control in at least one of the two categories (mortality or growth inhibition)
Protocol: Example B7: Activity Against Plutella xylostella (Diamond Back Moth)
24-well microtiter plates with artificial diet were treated with aqueous test solutions prepared from 10′000 ppm DMSO stock solutions by pipetting. After drying, Plutella eggs were pipetted through a plastic stencil onto a gel blotting paper and the plate was closed with it. The samples were assessed for mortality and growth inhibition in comparison to untreated samples 8 days after infestation. The following compounds gave an effect of at least 80% control in at least one of the two categories (mortality or growth inhibition) at an application rate of 200 ppm: P1, P2, P3, P4, P6, P7, P8, P9, P10, P11, P12, P13, P14, P15, P16, P17, P18, P19, P20, P21, P22, P23, P24, P25, P26, P27.

Myzus persicae [1] = test: Activity against Myzus persicae (green peach aphid), feeding/contact activity; conditions: foliar, 144 h, application rate 200 ppm, 6 days after infestation, sunflower leaf discs, mixed ages
Protocol: Example B5: Activity Against Myzus persicae (Green Peach Aphid). Feeding/Contact Activity
Sunflower leaf discs were placed onto agar in a 24-well microtiter plate and sprayed with aqueous test solutions prepared from 10′000 ppm DMSO stock solutions. After drying, the leaf discs were infested with an aphid population of mixed ages. The samples were assessed for mortality 6 days after infestation.

Spodoptera littoralis = test: Activity against Spodoptera littoralis (Egyptian cotton leaf worm), cotton leaf discs, L1 larvae; conditions: foliar, 72 h, application rate 200 ppm, 3 days after infestation, vs untreated, read-out: control in at least one of the three categories (mortality, anti-feedant effect, or growth inhibition)
Protocol: Example B8: Activity Against Spodoptera littoralis (Egyptian Cotton Leaf Worm)
Cotton leaf discs were placed onto agar in 24-well microtiter plates and sprayed with aqueous test solutions prepared from 10′000 ppm DMSO stock solutions. After drying the leaf discs were infested with five L1 larvae. The samples were assessed for mortality, anti-feeding effect, and growth inhibition in comparison to untreated samples 3 days after infestation. Control of Spodoptera littoralis by a test sample is given when at least one of the categories mortality, anti-feedant effect, and growth inhibition is higher than the untreated sample.

Tetranychus urticae = test: Activity against Tetranychus urticae (two-spotted spider mite), feeding/contact activity; conditions: foliar, 192 h
Protocol: Example B9: Activity Against Tetranychus urticae (Two-Spotted Spider Mite). Feeding/Contact Activity
Bean leaf discs on agar in 24-well microtiter plates were sprayed with aqueous test solutions prepared from 10′000 ppm DMSO stock solutions. After drying the leaf discs were infested with a mite population of mixed ages. The samples were assessed for mortality on mixed population (mobile stages) 8 days after infestation.

Myzus persicae [2] = test: Activity against Myzus persicae (green peach aphid), intrinsic activity; conditions: 120 h, test rate 12 ppm, 5 days after infestation, sucrose solution through Parafilm
Source text: Example B6: Activity Against Myzus persicae (Green Peach Aphid). Intrinsic Activity
Test compounds prepared from 10′000 ppm DMSO stock solutions were applied by pipette into 24-well microtiter plates and mixed with sucrose solution. The plates were closed with a stretched Parafilm. A plastic stencil with 24 holes was placed onto the plate and infested pea seedlings were placed directly on the Parafilm. The infested plate was closed with a gel blotting paper and another plastic stencil and then turned upside down. The samples were assessed for mortality 5 days after infestation.

Chilo suppressalis = test: Activity against Chilo suppressalis (striped rice stemborer), artificial diet, L2 larvae; conditions: 144 h, application rate 200 ppm, 6 days after infestation, vs untreated, read-out: control in at least one of the three categories (mortality, anti-feedant effect, or growth inhibition)
Protocol: Example B1: Activity Against Chilo suppressalis (Striped Rice Stemborer)
24-well microtiter plates with artificial diet were treated with aqueous test solutions prepared from 10′000 ppm DMSO stock solutions by pipetting. After drying, the plates were infested with L2 larvae (6-8 per well). The samples were assessed for mortality, anti-feeding effect, and growth inhibition in comparison to untreated samples 6 days after infestation. Control of Chilo suppressalis by a test sample is given when at least one of the categories mortality, anti-feedant effect, and growth inhibition is higher than the untreated sample.

Euschistus heros = test: Activity against Euschistus heros (neotropical brown stink bug), soybean leaves, N2 nymphs; conditions: 120 h, application rate 200 ppm, 5 days after infestation, vs untreated, read-out: effect in at least one of the two categories (mortality or growth inhibition)
Protocol: Example B3: Activity Against Euschistus heros (Neotropical Brown Stink Bug)
Soybean leaves on agar in 24-well microtiter plates were sprayed with aqueous test solutions prepared from 10′000 ppm DMSO stock solutions. After drying the leaves were infested with N2 nymphs. The samples were assessed for mortality and growth inhibition in comparison to untreated samples 5 days after infestation.

Diabrotica balteata = test: Activity against Diabrotica balteata (corn root worm), maize sprouts, L2 larvae; conditions: 96 h, application rate 200 ppm, 4 days after infestation, vs untreated, read-out: control in at least one of the two categories (mortality or growth inhibition)
Protocol: Example B2: Activity Against Diabrotica balteata (Corn Root Worm)
Maize sprouts placed onto an agar layer in 24-well microtiter plates were treated with aqueous test solutions prepared from 10′000 ppm DMSO stock solutions by spraying. After drying, the plates were infested with L2 larvae (6 to 10 per well). The samples were assessed for mortality and growth inhibition in comparison to untreated samples 4 days after infestation.

C[C@@H](c1nccnc1-c1ccc(=O)n(C)n1)N(C)c1ncnc2c(C(F)(F)F)cc(Cl)cc12 (single isomer, unassigned) [P27]
≥ 80%: percent control (mortality or growth inhibition) at 200 ppm (Plutella xylostella) | mortality at 200 ppm (Myzus persicae [1]) | percent control (mortality, anti-feedant effect or growth inhibition) at 200 ppm (Spodoptera littoralis) | mortality at 200 ppm (Tetranychus urticae) | mortality at 12 ppm (Myzus persicae [2]) | percent control (mortality, anti-feedant effect or growth inhibition) at 200 ppm (Chilo suppressalis) | percent effect (mortality or growth inhibition) at 200 ppm (Euschistus heros) | percent control (mortality or growth inhibition) at 200 ppm (Diabrotica balteata)

C[C@H](Nc1ncnc2c(C(F)(F)F)cc(C(F)(F)F)cc12)c1ncnn1C1=NN(C)C(=O)CC1 [P7, 6-[5-[(1S)-1-[[6,8-bis(trifluoromethyl)quinazolin-4-yl]amino]ethyl]-1,2,4-triazol-1-yl]-2-methyl-4,5-dihydropyridazin-3-one]
≥ 80%: percent control (mortality or growth inhibition) at 200 ppm (Plutella xylostella) | mortality at 200 ppm (Myzus persicae [1]) | percent control (mortality, anti-feedant effect or growth inhibition) at 200 ppm (Spodoptera littoralis) | mortality at 12 ppm (Myzus persicae [2]) | percent control (mortality, anti-feedant effect or growth inhibition) at 200 ppm (Chilo suppressalis) | percent effect (mortality or growth inhibition) at 200 ppm (Euschistus heros) | percent control (mortality or growth inhibition) at 200 ppm (Diabrotica balteata)

CC(Nc1ncnc2c(C(F)(F)F)cc(C(F)(F)F)cc12)c1nccnc1-c1ccc(=O)n(C)n1 (stereo not shown) [P8, 6-[3-[1-[[6,8-bis-(trifluoromethyl)-quinazolin-4-yl]amino]ethyl]pyr-azin-2-yl]-2-meth-yl-pyridazin-3-one]
≥ 80%: percent control (mortality or growth inhibition) at 200 ppm (Plutella xylostella) | mortality at 200 ppm (Myzus persicae [1]) | percent control (mortality, anti-feedant effect or growth inhibition) at 200 ppm (Spodoptera littoralis) | mortality at 12 ppm (Myzus persicae [2]) | percent control (mortality, anti-feedant effect or growth inhibition) at 200 ppm (Chilo suppressalis) | percent effect (mortality or growth inhibition) at 200 ppm (Euschistus heros) | percent control (mortality or growth inhibition) at 200 ppm (Diabrotica balteata)

C[C@H](Nc1ncnc2c(C(F)(F)F)cc(Cl)cc12)c1ncnn1C1=NN(C)C(=O)CC1 [P9, 6-[5-[(1S)-1-[[6-chloro-8-(trifluoro-methyl)quinazolin-4-yl]amino]ethyl]-1,2,4-triazol-1-yl]-2-methyl-4,5-di-hydropyridazin-3-one]
≥ 80%: percent control (mortality or growth inhibition) at 200 ppm (Plutella xylostella) | mortality at 200 ppm (Myzus persicae [1]) | percent control (mortality, anti-feedant effect or growth inhibition) at 200 ppm (Spodoptera littoralis) | mortality at 12 ppm (Myzus persicae [2]) | percent control (mortality, anti-feedant effect or growth inhibition) at 200 ppm (Chilo suppressalis) | percent effect (mortality or growth inhibition) at 200 ppm (Euschistus heros) | percent control (mortality or growth inhibition) at 200 ppm (Diabrotica balteata)

CC(Nc1ncnc2c(C(F)(F)F)cc(Cl)cc12)c1nccnc1-c1ccc(=O)n(C)n1 (stereo not shown) [P10, 6-[3-[1-[[6-chloro-8-(trifluorometh-yl)quinazolin-4-yl]amino]ethyl]pyr-azin-2-yl]-2-methyl-pyridazin-3-one]
≥ 80%: percent control (mortality or growth inhibition) at 200 ppm (Plutella xylostella) | mortality at 200 ppm (Myzus persicae [1]) | percent control (mortality, anti-feedant effect or growth inhibition) at 200 ppm (Spodoptera littoralis) | mortality at 12 ppm (Myzus persicae [2]) | percent control (mortality, anti-feedant effect or growth inhibition) at 200 ppm (Chilo suppressalis) | percent effect (mortality or growth inhibition) at 200 ppm (Euschistus heros) | percent control (mortality or growth inhibition) at 200 ppm (Diabrotica balteata)

CC(c1nccnc1-c1ccc(=O)n(C)n1)N(C)c1ncnc2c(Cl)cc(C(F)(F)F)cc12 (stereo not shown) [P12, 6-[3-[1-[[8-chloro-6-(trifluoromethyl)quinazolin-4-yl]-methyl-amino]ethyl]pyrazin-2-yl]-2-methyl-pyridazin-3-one]
≥ 80%: percent control (mortality or growth inhibition) at 200 ppm (Plutella xylostella) | mortality at 200 ppm (Myzus persicae [1]) | percent control (mortality, anti-feedant effect or growth inhibition) at 200 ppm (Spodoptera littoralis) | mortality at 12 ppm (Myzus persicae [2]) | percent control (mortality, anti-feedant effect or growth inhibition) at 200 ppm (Chilo suppressalis) | percent effect (mortality or growth inhibition) at 200 ppm (Euschistus heros) | percent control (mortality or growth inhibition) at 200 ppm (Diabrotica balteata)

CC(Nc1ncnc2c(Cl)cc(C(F)(F)F)cc12)c1nccnc1-c1ccc(=O)n(C)n1 (stereo not shown) [P13, 6-[3-[1-[[8-chloro-6-(trifluoromethyl)quinazolin-4-yl]amino]ethyl]pyrazin-2-yl]-2-methyl-pyridazin-3-one]
≥ 80%: percent control (mortality or growth inhibition) at 200 ppm (Plutella xylostella) | mortality at 200 ppm (Myzus persicae [1]) | percent control (mortality, anti-feedant effect or growth inhibition) at 200 ppm (Spodoptera littoralis) | mortality at 12 ppm (Myzus persicae [2]) | percent control (mortality, anti-feedant effect or growth inhibition) at 200 ppm (Chilo suppressalis) | percent effect (mortality or growth inhibition) at 200 ppm (Euschistus heros) | percent control (mortality or growth inhibition) at 200 ppm (Diabrotica balteata)

CCn1nc(-n2ncnc2[C@H](C)N(C)c2ncnc3c(C(F)(F)F)cc(Cl)cc23)ccc1=O [P15, 6-[5-[(1S)-1-[[6-chloro-8-(trifluoro-methyl)quinazolin-4-yl]-methyl-amino]ethyl]-1,2,4-triazol-1-yl]-2-ethyl-pyrid-azin-3-one]
≥ 80%: percent control (mortality or growth inhibition) at 200 ppm (Plutella xylostella) | mortality at 200 ppm (Myzus persicae [1]) | percent control (mortality, anti-feedant effect or growth inhibition) at 200 ppm (Spodoptera littoralis) | mortality at 12 ppm (Myzus persicae [2]) | percent control (mortality, anti-feedant effect or growth inhibition) at 200 ppm (Chilo suppressalis) | percent effect (mortality or growth inhibition) at 200 ppm (Euschistus heros) | percent control (mortality or growth inhibition) at 200 ppm (Diabrotica balteata)

CCn1nc(-n2ncnc2[C@H](C)Nc2ncnc3c(Cl)cc(C(F)(F)F)cc23)ccc1=O [P17, 6-[5-[(1S)-1-[[8-chloro-6-(trifluoromethyl)quinazolin-4-yl]amino]ethyl]-1,2,4-triazol-1-yl]-2-ethyl-pyridazin-3-one]
≥ 80%: percent control (mortality or growth inhibition) at 200 ppm (Plutella xylostella) | mortality at 200 ppm (Myzus persicae [1]) | percent control (mortality, anti-feedant effect or growth inhibition) at 200 ppm (Spodoptera littoralis) | mortality at 12 ppm (Myzus persicae [2]) | percent control (mortality, anti-feedant effect or growth inhibition) at 200 ppm (Chilo suppressalis) | percent effect (mortality or growth inhibition) at 200 ppm (Euschistus heros) | percent control (mortality or growth inhibition) at 200 ppm (Diabrotica balteata)

CCn1nc(-n2ncnc2[C@H](C)Nc2ncnc3c(C(F)(F)F)cc(Cl)cc23)ccc1=O [P19, 6-[5-[(1S)-1-[[6-chloro-8-(trifluoro-methyl)quinazolin-4-yl]amino]ethyl]-1,2,4-triazol-1-yl]-2-ethyl-pyridazin-3-one]
≥ 80%: percent control (mortality or growth inhibition) at 200 ppm (Plutella xylostella) | mortality at 200 ppm (Myzus persicae [1]) | percent control (mortality, anti-feedant effect or growth inhibition) at 200 ppm (Spodoptera littoralis) | mortality at 12 ppm (Myzus persicae [2]) | percent control (mortality, anti-feedant effect or growth inhibition) at 200 ppm (Chilo suppressalis) | percent effect (mortality or growth inhibition) at 200 ppm (Euschistus heros) | percent control (mortality or growth inhibition) at 200 ppm (Diabrotica balteata)

CCn1nc(-n2ncnc2[C@H](C)N(C)c2ncnc3c(Cl)cc(C(F)(F)F)cc23)ccc1=O [P22, 6-[5-[(1S)-1-[[8-chloro-6-(trifluoro-methyl)quinazolin-4-yl]-methyl-amino]ethyl]-1,2,4-triazol-1-yl]-2-ethyl-pyrid-azin-3-one]
≥ 80%: percent control (mortality or growth inhibition) at 200 ppm (Plutella xylostella) | mortality at 200 ppm (Myzus persicae [1]) | percent control (mortality, anti-feedant effect or growth inhibition) at 200 ppm (Spodoptera littoralis) | mortality at 12 ppm (Myzus persicae [2]) | percent control (mortality, anti-feedant effect or growth inhibition) at 200 ppm (Chilo suppressalis) | percent effect (mortality or growth inhibition) at 200 ppm (Euschistus heros) | percent control (mortality or growth inhibition) at 200 ppm (Diabrotica balteata)

C[C@@H](c1ncnn1C1=NN(C)C(=O)CC1)N(C)c1ncnc2c(C(F)(F)F)cc(Cl)cc12 [P24]
≥ 80%: percent control (mortality or growth inhibition) at 200 ppm (Plutella xylostella) | mortality at 200 ppm (Myzus persicae [1]) | percent control (mortality, anti-feedant effect or growth inhibition) at 200 ppm (Spodoptera littoralis) | mortality at 12 ppm (Myzus persicae [2]) | percent control (mortality, anti-feedant effect or growth inhibition) at 200 ppm (Chilo suppressalis) | percent effect (mortality or growth inhibition) at 200 ppm (Euschistus heros) | percent control (mortality or growth inhibition) at 200 ppm (Diabrotica balteata)
